Experimental data reported in patent US10202367B2, “Heterocyclic compounds and methods of use thereof” (priority 2014, dated 2019).

Test system: not listed separately
Test: Aqueous solubility in PBS
Assay type: physicochemical
Conditions: not given

| Molecule | Sol. |
| --- | --- |
| Cc1ccc(-c2nc(CN3CCC(C(=O)NCCCN4C[C@H](C)C[C@H](C)C4)CC3)c(C)o2)cc1C [Compound 22] | >71.0 µg/mL |
| Cc1oc(-c2cccc(Cl)c2)nc1CN1CCC(C(=O)NCCCN2C[C@H](C)C[C@H](C)C2)CC1 [Compound 24] | >72.0 µg/mL |
| COc1cccc(C)c1-c1nc(CN2CCC(C(=O)NCCCN3C[C@H](C)C[C@H](C)C3)CC2)c(C)o1 [Compound 45] | >73.0 µg/mL |
| Cc1ccccc1-c1nc(CN2CCC(C(=O)NCCCN3C[C@H](C)C[C@H](C)C3)CC2)c(C)s1 [Compound 65] | >71.0 µg/mL |
| Cc1ccccc1-c1nc(CN2CCC(C(=O)NCCCN3CCCC(CC(C)C)C3)CC2)c(C)o1 (centres unmarked) [Compound 53] | 54.9 µg/mL |
| Cc1ccccc1-c1nc(CN2CCC(C(=O)N3CCN(C4CCN(C)CC4)CC3)CC2)c(C)o1 [Compound 13] | >71.0 µg/mL |
| Cc1ccccc1-c1nc(CN2CCC(C(=O)NCCCN3C[C@H](C)C[C@H](C)C3)CC2)c(C)o1 [Compound 28] | 54.8 µg/mL |
| Cc1ccccc1-c1nc(CN2CCC(C(=O)NCCCN3CC4CCCC(C4)C3)CC2)c(C)o1 [Compound 54] | > .71 µg/mL |
| Cc1ccccc1-c1nc(CN2CCC(C(=O)NCCCN3C[C@H](C)C[C@@H](C)C3)CC2)c(C)o1 [Compound 47] | >69.0 µg/mL |
| Cc1ccccc1-c1nc(CN2CCC(C(=O)NCCCN3C[C@H](C)C[C@H](C)C3)CC2)c(C)o1 [Compound 63] | 54.8 µg/mL |
| Cc1cccc(Cl)c1-c1nc(CN2CCC(C(=O)NCCCN3CCCC(C)C3)CC2)c(C)o1 (centres unmarked) [Compound 59] | 52.6 µg/mL |
| Cc1ccc(-c2nc(CN3CCC(C(=O)NCCCN4C[C@H](C)C[C@H](C)C4)CC3)c(C)o2)c(C)c1 [Compound 32] | >71.0 µg/mL |
| Cc1ccccc1-c1nc(CN2CCC(C(=O)NCCCN3CCCC(C)C3)CC2)c(C)o1 (centres unmarked) [Compound 6] | >67.0 µg/mL |
| COc1cccc(Br)c1-c1nc(CN2CCC(C(=O)NCCCN3C[C@H](C)C[C@H](C)C3)CC2)c(C)o1 [Compound 40] | >83.0 µg/mL |
| Cc1ccccc1-c1nc(CN2CCC(C(=O)NCCCN3CCC(C)CC3)CC2)c(C)o1 [Compound 10] | >67.0 µg/mL |
| Cc1cc(C)cc(-c2nc(CN3CCC(C(=O)NCCCN4C[C@H](C)C[C@H](C)C4)CC3)c(C)o2)c1 [Compound 4] | >71.0 µg/mL |
| COc1cccc(OC)c1-c1nc(CN2CCC(C(=O)NCCCN3C[C@H](C)C[C@H](C)C3)CC2)c(C)o1 [Compound 37] | >76.0 µg/mL |
| Cc1ccccc1-c1nc(CN2CCC(C(=O)NCCCN3C[C@H](C)C[C@H](C)C3)CC2)c(C)o1 [Compound 27] | >69.0 µg/mL |
| COc1cccc(F)c1-c1nc(CN2CCC(C(=O)NCCCN3C[C@H](C)C[C@H](C)C3)CC2)c(C)o1 [Compound 38] | >74.0 µg/mL |
| Cc1cccc(Cl)c1-c1nc(CN2CCC(C(=O)NCCCN3CCC(C)(C)CC3)CC2)c(C)o1 [Compound 60] | >74 µg/mL |
| Cc1oc(-c2c(F)cccc2Cl)nc1CN1CCC(C(=O)NCCCN2C[C@H](C)C[C@H](C)C2)CC1 [Compound 33] | >75.0 µg/mL |
| Cc1ccccc1-c1nc(CN2CCC(C(=O)N3CCN(CCN(C)C)CC3)CC2)c(C)o1 [Compound 14] | >67.0 µg/mL |
| Cc1cccc(Cl)c1-c1nc(CN2CCC(C(=O)NCCCN3CCC(C(C)C)CC3)CC2)c(C)o1 [Compound 61] | >76 µg/mL |
| Cc1cccc(F)c1-c1nc(CN2CCC(C(=O)NCCCN3C[C@H](C)C[C@H](C)C3)CC2)c(C)o1 [Compound 46] | >72.0 µg/mL |
| Cc1ccccc1-c1nc(CN2CCC(C(=O)NCCCN3C[C@H](C)C[C@H](C)C3)CC2)c(C)o1 [Compound 26] | >69.0 µg/mL |
| Cc1oc(-c2ccc(Cl)cc2)nc1CN1CCC(C(=O)NCCCN2C[C@H](C)C[C@H](C)C2)CC1 [Compound 16] | >72.0 µg/mL |
| Cc1ccccc1-c1nc(CN2CCC(C(=O)NCCCN3C[C@H](C)C[C@H](C)C3)CC2)c(C)o1 [Compound 25] | >69.0 µg/mL |

| Molecule | Sol. |
| --- | --- |
| Cc1oc(-c2c(F)cccc2F)nc1CN1CCC(C(=O)NCCCN2C[C@H](C)C[C@H](C)C2)CC1 [Compound 30] | >72.0 µg/mL |
| Cc1ccccc1-c1nc(CN2CCC(C(=O)NCCCN3CCCCC3)CC2)c(C)o1 [Compound 9] | >65.0 µg/mL |
| Cc1oc(-c2c3ccccc3cc3ccccc23)nc1CN1CCC(C(=O)NCCCN2C[C@H](C)C[C@H](C)C2)CC1 [Compound 36] | 62.1 µg/mL |
| Cc1ccccc1-c1nc(CN2CCC(C(=O)NCCCN3[C@H](C)CCC[C@@H]3C)CC2)c(C)o1 [Compound 51] | >69.0 µg/mL |
| Cc1ccccc1-c1nc(CN2CCC(C(=O)NCCCN3CCOCC3)CC2)c(C)o1 [Compound 12] | >65.0 µg/mL |
| COc1cccc(Cl)c1-c1nc(CN2CCC(C(=O)NCCCN3C[C@H](C)C[C@H](C)C3)CC2)c(C)o1 [Compound 42] | >76.0 µg/mL |
| Cc1ccc2ccccc2c1-c1nc(CN2CCC(C(=O)NCCCN3C[C@H](C)C[C@H](C)C3)CC2)c(C)o1 [Compound 39] | >76.0 µg/mL |
| Cc1cccc(C)c1-c1nc(CN2CCC(C(=O)NCCCN3C[C@H](C)C[C@H](C)C3)CC2)c(C)o1 [Compound 23] | 55.9 µg/mL |
| Cc1ccccc1-c1nc(CN2CCC(C(=O)NCCCN3C[C@H](C)C[C@H](C)C3)CC2)c(C)o1 [Compound 64] | >69.0 µg/mL |
| Cc1ccccc1-c1nc(CN2CCC(C(=O)NCCN3C[C@H](C)C[C@H](C)C3)CC2)c(C)o1 [Compound 20] | >67.0 µg/mL |
| Cc1ccccc1-c1nc(CN2CCC(C(=O)NCCCCN3C[C@H](C)C[C@H](C)C3)CC2)c(C)o1 [Compound 21] | >71.0 µg/mL |
| Cc1ccccc1-c1nc(CN2CCC(C(=O)NCCCN3CCC(C(C)C)CC3)CC2)c(C)o1 [Compound 5] | >71.0 µg/mL |
| Cc1cccc(-c2nc(CN3CCC(C(=O)NCCCN4C[C@H](C)C[C@H](C)C4)CC3)c(C)o2)c1 [Compound 18] | >69.0 µg/mL |
| Cc1ccc2ccccc2c1-c1nc(CN2CCC(C(=O)NCCCN3C[C@H](C)C[C@H](C)C3)CC2)c(C)o1 [Compound 62] | >76.1 µg/mL |
| Cc1cc(-c2nc(CN3CCC(C(=O)NCCCN4C[C@H](C)C[C@H](C)C4)CC3)co2)ccc1F [Compound 70] | >70 µg/mL |
| Cc1ccc(C)c(-c2nc(CN3CCC(C(=O)NCCCN4C[C@H](C)C[C@H](C)C4)CC3)c(C)o2)c1 [Compound 34] | 56.1 µg/mL |
| Cc1oc(-c2c(Cl)cccc2Br)nc1CN1CCC(C(=O)NCCCN2C[C@H](C)C[C@H](C)C2)CC1 [Compound 41] | >83.0 µg/mL |
| Cc1ccccc1-c1nc(CN2CCC(C(=O)NCCCN3CCC(C)(C)CC3)CC2)c(C)o1 [Compound 50] | >69.0 µg/mL |
| Cc1cc(-c2nc(CN3CCC(C(=O)NCCCN4CCC(C(C)C)CC4)CC3)co2)ccc1F [Compound 71] | >72 µg/mL |
| Cc1oc(-c2c(Cl)cccc2C(F)(F)F)nc1CN1CCC(C(=O)NCCCN2C[C@H](C)C[C@H](C)C2)CC1 [Compound 44] | 65.1 µg/mL |
| Cc1oc(-c2ccccc2Cl)nc1CN1CCC(C(=O)NCCCN2C[C@H](C)C[C@H](C)C2)CC1 [Compound 15] | >72.0 µg/mL |
| CCc1ccccc1-c1nc(CN2CCC(C(=O)NCCCN3C[C@H](C)C[C@H](C)C3)CC2)c(C)o1 [Compound 17] | 55.9 µg/mL |
| Cc1ccc(-c2nc(CN3CCC(C(=O)NCCCN4C[C@H](C)C[C@H](C)C4)CC3)c(C)o2)cc1 [Compound 19] | >69.0 µg/mL |
| Cc1ccccc1-c1nc(CN2CCC(C(=O)NCCCN3CCCC(C(C)C)C3)CC2)c(C)o1 (centres unmarked) [Compound 52] | >71 µg/mL |
| Cc1oc(-c2cccc3ccccc23)nc1CN1CCC(C(=O)NCCCN2C[C@H](C)C[C@H](C)C2)CC1 [Compound 31] | >74.0 µg/mL |
| Cc1ccccc1-c1nc(CN2CCC(C(=O)NCCCN3C[C@H](C)C[C@H](C)C3)CC2)c(C)o1 [Compound 29] | >69.0 µg/mL |

Same assay, conditions: pH 7.4

| Molecule | Sol. |
| --- | --- |
| Cc1oc(-c2c(Cl)cccc2Cl)nc1CN1CCC(C(=O)NCCCN2C[C@H](C)C[C@H](C)C2)CC1 [Compound 35] | >77.0 µg/mL |
| Cc1oc(-c2c(Br)cccc2Br)nc1CN1CCC(C(=O)NCCCN2C[C@H](C)C[C@H](C)C2)CC1 [Compound 43] | 62.4 µg/mL |

Test system: HCVcc-RLuc
Test: HCVcc-RLuc assay, combination of compound 3 with anti-HCV drugs (CalcuSyn / MacSynergy II)
Assay type: cell-based, Hepatitis C virus
Conditions: not given

| Molecule | CalcuSyn CI value (combination index) | CalcuSyn synergy volume (level of synergy) | MacSynergy synergy volume (level of synergy) |
| --- | --- | --- | --- |
| NC(=O)c1ncn([C@@H]2O[C@H](CO)[C@@H](O)[C@H]2O)n1 [Ribavirin] | 0.770 | ++ (key: +/−: nearly additive (0.9 < CI < 1.1); ++: moderate synergy (0.7 < CI < 0.85); +++: synergy (0.3 < CI < 0.7)) | +++ (key: ++: moderate synergy (5 < log volume < 9); +++: strong synergy (log volume > 9)) |
| CCC[C@H](NC(=O)[C@@H]1[C@H]2CCC[C@H]2CN1C(=O)[C@@H](NC(=O)[C@@H](NC(=O)c1cnccn1)C1CCCCC1)C(C)(C)C)C(=O)C(=O)NC1CC1 [Telaprevir] | 0.775 | ++ (key: +/−: nearly additive (0.9 < CI < 1.1); ++: moderate synergy (0.7 < CI < 0.85); +++: synergy (0.3 < CI < 0.7)) | +++ (key: ++: moderate synergy (5 < log volume < 9); +++: strong synergy (log volume > 9)) |
| IFN-α | 0.545 | +++ (key: +/−: nearly additive (0.9 < CI < 1.1); ++: moderate synergy (0.7 < CI < 0.85); +++: synergy (0.3 < CI < 0.7)) |  |
| COC(=O)N[C@H](C(=O)N1CCC[C@H]1c1nc(-c2ccc(-c3ccc(-c4c[nH]c([C@@H]5CCCN5C(=O)[C@@H](NC(=O)OC)C(C)C)n4)cc3)cc2)c[nH]1)C(C)C [Daclatasvir] | 0.510 | +++ (key: +/−: nearly additive (0.9 < CI < 1.1); ++: moderate synergy (0.7 < CI < 0.85); +++: synergy (0.3 < CI < 0.7)) |  |

Same assay, conditions: tested drug combined with compound 3 (SID 144187742)

| Molecule | CalcuSyn synergy volume (level of synergy) |
| --- | --- |
| C[C@@]1(O)[C@H](O)[C@@H](CO)O[C@H]1n1ccc(N)nc1=O [2′-C-methylcytidine] | +/− (nearly additive (0.9 < CI < 1.1)) |

Same assay, conditions: tested drug combined with compound 3 (SID 144187742) at or near their EC50 values; mean ± SEM, n ≥ 6

| Molecule | CalcuSyn CI value (combination index) |
| --- | --- |
| C[C@@]1(O)[C@H](O)[C@@H](CO)O[C@H]1n1ccc(N)nc1=O [2′-C-methylcytidine] | 1.10 |

Same assay, conditions: tested drug combined with compound 3; Bliss independence model, MacSynergy II

| Molecule | MacSynergy synergy volume (level of synergy) |
| --- | --- |
| C[C@@]1(O)[C@H](O)[C@@H](CO)O[C@H]1n1ccc(N)nc1=O [2′-C-methylcytidine] | +++ (strong synergy (log volume > 9)) |
